“And” between values parts separate entries of the source, which are not always exact repeats. Equal values may be shown once. “Also recorded” adds a separate entry of the source. Marks after values point to notes of the source that are not given here.
What was measured:
[1] = Mass balance: recovery of total radioactivity in urine and feces; assay type: in vivo, human; conditions: for Radioactivity excreted in feces / Radioactivity excreted in urine / Total radioactive excretion in urine and feces: 0–312 h, mean±SD, n=6
Protocol: (§1) This was a single-center, single-dose, open-trial study involving six healthy Chinese male subjects. They received a single dose of 600 mg/150 μCi [^14C]IBI351 on day 1 after fasting for at least 10 h. Blood, urine, and fecal samples were collected at specified time points or intervals within 15 days (0–336 h) following the administration of [^14C]IBI351.
Urine and fecal samples were collected for mass balance analysis and metabolite profiling. Urine samples were collected in polyethylene containers during the following time periods (in hours): −24–0 (pre-dosing), 0–4, 4–8, 8–12, 12–24, and at 24-h intervals thereafter (post-dosing) and stored at 4 ℃ during the collection period. Fecal samples were collected during the following periods (in hours): −24–0 (pre-dosing), 0–24, and at 24-h intervals thereafter (post-dosing). The collection of urine and fecal samples was terminated when the TRA in the combined biological samples (urine + feces) from each subject exceeded 90% of the administered dose. Additionally, the radioactivity in samples collected over two consecutive days should be less than 1% of the administered dose. The samples were weighed in special containers and stored at −10 ℃ to −30 ℃ until analysis.
(§2) Blood, plasma, urine, and fecal samples were analyzed for TRA using the Tri-Carb model 3110 TR liquid scintillation counter (PerkinElmer, Waltham, MA, USA). Blood samples were divided into two parallel portions (0.5 g) and completely burned by OX-501 oxidizer (R.J. Harvey, Tappan, NY, USA). Finally, the samples were analyzed by liquid scintillation counting. Plasma (0.5 g) and urine (1 g) samples were directly analyzed by liquid scintillation counting. Fecal samples were first homogenized with isopropanol/water (50/50, v/v). The excretion of radioactivity in the urine and feces, referring to the cumulative recovery of total radioactive material in each time period, was defined as the sum of the percentage of TRA in the urine and feces relative to the administered dose. The TRA in each sample during a time period and the percentage of TRA related to the administered dose (% of dose) were calculated using the following formula: % of dosage = (TRA detected in the sample/radioactive dosage) × 100%.

[2] = Ratio of total radioactivity in whole blood to plasma; assay type: in vivo, human; conditions: Mean±SD, n=6
Protocol: (§3) The endpoint of blood analysis was a plasma radioactivity concentration less than 1/8 of the baseline plasma value. Venous blood samples were collected from the six subjects (01101–01106) at the following time points (in hours): −1 (pre-dosing), 0.5, 1, 2, 4, 8, 12, 24, and at 24-h intervals (post-dosing). Whole blood aliquots were collected for radioactivity measurement, and blood samples were centrifuged (1500 [± 10] g, 4 ℃, 10 min) for metabolite identification. All samples were stored at −10–−30 ℃ until analysis.
as §2
The radioactivity in the whole blood and plasma is represented by the TRA ratio between the whole blood and plasma.

[3] = Pharmacokinetics of total radioactivity (TRA) in plasma by liquid scintillation counting; assay type: in vivo, human; conditions: for Tmax: single oral 600 mg/150 μCi [14C]IBI351, fasted, median (min, max)
Protocol: as §1, §3, §2
Statistical analysis of TRA in the whole blood and plasma, concentrations of IBI351, corresponding pharmacokinetic parameters, and urine and fecal excretion data was performed using Microsoft Excel 2010. The pharmacokinetic parameters were calculated using Pkanalix 2021R1 (Lixoft, Antony, France). The drug-time curve was plotted using WinNonlin® (version 8.3, Certara). Data were analyzed using the SAS 9.4 software and presented as mean ± standard deviation.

albumin = target: T1, albumin (Homo sapiens, UniProt P02768); test: Covalent binding analysis of IBI351 in the plasma; assay type: in vitro ADME
T1 construct: from tissue; host or cells: plasma of healthy human male subjects

[4] = Safety analysis: adverse events and laboratory tests; assay type: in vivo, human; conditions: for Urea: reference range 3.1–8.0; for Urea / TBIL / ALT / GGT / AST / Cr: listed as [14C]IBI351; for TBIL: reference range 5.1–19.0; for ALT: reference range 9.0–50.0; for GGT: reference range 10.0–60.0; for AST: reference range 15.0–40.0; for Cr: reference range 57.0–97.0; for Safety and tolerability: vital signs, physical indexes, electrocardiogram
Protocol: Safety was evaluated based on the adverse events that occurred during the trial. Normal/abnormal changes in physical examination, vital signs, laboratory tests, electrocardiogram, and other results were evaluated before and after the trial.

[5] = individual subjects, rows in order 01101–01106, listed as [14C]IBI351
[6] = total plasma radioactivity, single oral 600 mg/150 μCi, n=6, mean±SD
[7] = D3, individual subjects, rows in order 01101–01106
[8] = D8, individual subjects, rows in order 01101–01106
[9] = follow-up visit, individual subjects, rows in order 01101–01106
[10] = single oral 600 mg/150 μCi, listed as [^14C]IBI351

T1 sequence (P02768 25-609): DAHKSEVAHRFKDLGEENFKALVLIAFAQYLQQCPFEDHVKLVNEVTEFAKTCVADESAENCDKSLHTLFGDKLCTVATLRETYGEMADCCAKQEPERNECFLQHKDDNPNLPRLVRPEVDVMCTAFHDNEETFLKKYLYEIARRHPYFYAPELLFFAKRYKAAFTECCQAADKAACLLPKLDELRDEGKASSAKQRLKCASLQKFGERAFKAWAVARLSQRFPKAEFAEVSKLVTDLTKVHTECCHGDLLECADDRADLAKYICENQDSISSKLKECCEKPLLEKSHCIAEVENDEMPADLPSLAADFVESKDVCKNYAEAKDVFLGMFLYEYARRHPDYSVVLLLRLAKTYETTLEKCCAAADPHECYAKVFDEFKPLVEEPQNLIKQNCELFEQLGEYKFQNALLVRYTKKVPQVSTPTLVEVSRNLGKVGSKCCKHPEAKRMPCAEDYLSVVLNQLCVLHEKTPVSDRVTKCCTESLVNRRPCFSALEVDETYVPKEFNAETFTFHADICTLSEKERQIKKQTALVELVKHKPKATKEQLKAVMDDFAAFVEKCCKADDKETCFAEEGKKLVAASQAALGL

With `C=CC(=O)N1CCN2c3c(c(=O)n(-c4c(C)ccnc4C(C)C)c4nc(-c5c(O)cccc5F)c(Cl)cc34)N(C)C(=O)C2C1` (centres unmarked) [IBI351] the “Radioactivity excreted in feces” value [1] was “approximately 86.30 % of dose”, the “Radioactivity excreted in urine” value [1] was 9.27 % of dose and the “Total radioactive excretion in urine and feces” value (“Total radioactive excretion” for short) [1] was 95.56 % of dose. For the same compound, the “Radioactivity excreted in feces” value ([1]; listed as [14C]IBI351) was 86.30±4.90 % of dose, the “Radioactivity excreted in urine” value ([1]; listed as [14C]IBI351) was 9.27±1.83 % of dose and the “Total radioactive excretion” value ([1]; listed as [14C]IBI351) was 95.56±3.41 % of dose. The “Radioactivity excreted in feces” value ([1]; listed as [^14C]IBI351) was 86.30 % of dose, the “Radioactivity excreted in urine” value ([1]; listed as [^14C]IBI351) was 9.27 % of dose and the “Total radioactive excretion” value ([1]; listed as [^14C]IBI351) was 95.56 % of dose. The Excretion rate ([1]; at 144 h (six days) post-dose) was “less than 1.00%”, the “Urine and feces recovered radioactivity” value ([1]; individual subjects, rows in order 01101–01106, 01105 normalized to 100.00%, listed as [14C]IBI351) was 92.36 % of dose and 94.47 % of dose and 91.45 % of dose and 96.48 % of dose and 100.00 % of dose and 98.61 % of dose and the Feces recovered radioactivity [1, 5] was 80.29 % of dose and 87.83 % of dose and 92.67 % of dose and 89.35 % of dose and 80.67 % of dose and 86.99 % of dose. For the same compound, the Urine recovered radioactivity [1, 5] was 11.69 % of dose and 7.48 % of dose and 11.16 % of dose and 8.65 % of dose and 7.33 % of dose and 9.26 % of dose, the “TRA excreted into the feces” value ([1]; of the administered dose, from 0 h to 192 h) was 86.30% and the “TRA excreted into the urine and feces” value ([1]; of the administered dose, period printed as 0–192 h) was 95.56%. The “Total radioactive content excreted in urine and feces within 120 h” value ([1]; within 120 h (five days) after administration, on average) was “more than 90.00%”, the “Ratio of whole blood to total plasma radioactivity” value (from here on “Ratio of whole blood”) ([2]; 0.50 h post-dose) was 0.655±0.0841 and the “Ratio of whole blood” value ([2]; 1.00 h post-dose) was 0.716±0.0588. The “Ratio of whole blood” value ([2]; 4.00 h post-dose) was 0.606±0.0323, the “Ratio of whole blood” value ([2]; 12.0 h post-dose) was 0.571±0.0884 and the “Ratio of whole blood” value ([2]; 24.0 h post-dose) was 0.626±0.0402. The “Ratio of whole blood” value ([2]; 48.0 h post-dose) was 0.670±0.0320, the quantifiable time point ([3]; TRA in plasma) was 456 h and the Tmax ([3]; total plasma radioactivity, n=6) was 2.00 h and 2.00 (2.00, 4.00) h. The Tmax ([3]; total plasma radioactivity, n=6, listed as [^14C]IBI351) was 2 h, the “AUC0–inf” value [3, 6] was 4.69×10^5±1.10×10^5 h·ng Eq./mL and the “AUC0–last” value [3, 6] was 4.33×10^5±1.04×10^5 h·ng Eq./mL. For the same compound, the CL/F [3, 6] was 1.32 ± 0.319 L/h, the Cmax [3, 6] was 7.26 × 10^3 (± 1.68 × 10^3) ng Eq./mL and 7.26×10^3±1.68×10^3 ng Eq./mL and the “MRT0–last” value [3, 6] was 108 ± 4.20 h. The T1/2 [3, 6] was 129 (± 21.7) h and 129±21.7 h, the Vz/F [3, 6] was 242 ± 50.7 L and the T1/2 ([3]; total plasma radioactivity, single oral 600 mg/150 μCi, n=6, mean±SD, listed as [^14C]IBI351) was 129 h. For the same compound, the “covalent binding in the plasma” value (albumin) was “presence of covalent binding between IBI351 and albumin”, the Urea [4, 7] was 4.3 mmol/L and 4.9 mmol/L and 5.1 mmol/L and 4.5 mmol/L and 4.0 mmol/L and 5.5 mmol/L and the TBIL [4, 7] was 6.4 µmol/L and 12.2 µmol/L and 7.7 µmol/L and 10.0 µmol/L and 11.5 µmol/L and 10.4 µmol/L. The ALT ([4]; D3, individual subjects, 01101, 01102–01106) was 11.4 U/L and 10.3 U/L and 11.0 U/L and 14.4 U/L and 29.0 U/L and 17.0 U/L, the GGT [4, 7] was 9.9 U/L and 17.1 U/L and 19.1 U/L and 33.0 U/L and 14.4 U/L and 20.1 U/L and the AST [4, 7] was 18.5 U/L and 11.5 U/L and 10.9 U/L and 16.4 U/L and 23.6 U/L and 19.0 U/L. For the same compound, the Cr [4, 7] was 73.1 µmol/L and 69.5 µmol/L and 66.4 µmol/L and 69.2 µmol/L and 76.5 µmol/L and 78.7 µmol/L, the Urea [4, 8] was 3.8 mmol/L and 5.4 mmol/L and 5.6 mmol/L and 4.2 mmol/L and 4.5 mmol/L and 5.1 mmol/L and the TBIL [4, 8] was 8.1 µmol/L and 14.2 µmol/L and 4.5 µmol/L and 8.0 µmol/L and 15.1 µmol/L and 13.5 µmol/L. For the same compound, the ALT [4, 8] was 18.3 U/L and 12.1 U/L and 10.5 U/L and 19.8 U/L and 30.9 U/L and 17.9 U/L, the GGT [4, 8] was 12.1 U/L and 25.8 U/L and 16.8 U/L and 33.8 U/L and 17.0 U/L and 19.2 U/L and the AST [4, 8] was 24.1 U/L and 14.2 U/L and 15.8 U/L and 15.2 U/L and 22.2 U/L and 17.7 U/L. For the same compound, the Cr [4, 8] was 69.6 µmol/L and 73.7 µmol/L and 64.2 µmol/L and 72.0 µmol/L and 76.4 µmol/L and 84.3 µmol/L, the “Severity of TEAEs” value ([4]; all TEAEs, single oral 600 mg/150 μCi) was “grade 1” and the Urea [4, 9] was 3.5 mmol/L and 3.8 mmol/L and 5.6 mmol/L and 4.7 mmol/L and 4.1 mmol/L and 6.1 mmol/L. For the same compound, the TBIL [4, 9] was 8.1 µmol/L and 12.3 µmol/L and 4.5 µmol/L and 7.0 µmol/L and 8.8 µmol/L, the ALT [4, 9] was 9.5 U/L and 20.5 U/L and 8.0 U/L and 19.4 U/L and 21.4 U/L and 14.7 U/L and the GGT [4, 9] was 13.4 U/L and 25.8 U/L and 22.0 U/L and 32.9 U/L and 16.9 U/L and 15.9 U/L. For the same compound, the AST [4, 9] was 15.7 U/L and 14.2 U/L and 16.9 U/L and 11.0 U/L and 19.4 U/L and 17.6 U/L, the Cr [4, 9] was 72.8 µmol/L and 73.1 µmol/L and 64.2 µmol/L and 71.4 µmol/L and 66.8 µmol/L and 92.4 µmol/L and the “Subjects experiencing treatment-emergent adverse events (TEAEs)” value ([4]; four of six subjects, TEAEs unrelated to [14C]IBI351, single oral 600 mg/150 μCi) was 66.7%. The “TEAE: diarrhea” value ([4]; share of six subjects, grade 1) was 33.3%, the “TEAE: elevated blood triglycerides” value ([4]; share of six subjects, grade 1) was 33.3% and the “TEAE: positive fecal occult blood” value ([4]; share of six subjects, grade 1) was 16.7%. The “TEAEs leading to death” value ([4]; single oral 600 mg/150 μCi) was “no TEAEs leading to death”, the Serious adverse events [4, 10] was “no serious adverse events; also recorded: no severe adverse events” and the “TEAEs of CTCAE grade ≥ 3” value [4, 10] was “no TEAEs with Common Terminology Criteria for Adverse Events (CTCAE) grade ≥ 3; also recorded: no TEAEs of CTCAE grade ≥ 3”. The Safety and tolerability ([4]; single oral 600 mg/150 μCi) was “generally safe and well tolerated” and the Safety and tolerability [4, 10] was “good safety and tolerance”.

Reference: publication PMC12329412, “Study of the mass balance, biotransformation, and safety of [^14C]IBI351 in healthy Chinese subjects” (Journal of Biomedical Research, 2024)
